How the values were obtained:
Format in all cases: cell-based
[1] = tested on: Rat adult neural stem cell line ANSC-7 cells; test: Test Example 1: Proliferation promoting activity on neural stem cells (1), Hoechst 33342 nucleus staining fluorescence; details: 96 hours culture, nucleus-stain fluorescence, read-out: proliferation promoting activity (relative value, negative control = 100%); for activity at 1 µM: 1.0 μmol/L; for activity at 0.32 µM: 0.32 μmol/L
Protocol: Rat adult neural stem cell line ANSC-7 cells prepared by the method described in the following Reference Example 1 were suspended in DMEM/F12 medium (manufactured by Invitrogen) supplemented with N-2 additives [5 μg/mL insulin (manufactured by Sigma), 100 μg/mL bovine apotransferrin (manufactured by Sigma), 6.3 ng/mL progesterone (manufactured by Sigma), 1.6 μg/mL putrescine (manufactured by Sigma) and 5.2 ng/mL sodium selenate (manufactured by Sigma)] and an antibiotics mixed liquid [0.05 U/mL penicillin and 0.05 μg/mL streptomycin (manufactured by Invitrogen)] (to be referred to as assay medium hereinafter), at a density of 1.7×10^5 cells/mL; inoculated at 0.1 mL in a 96 well plate (manufactured by Costar) of which surface was processed with polyornithine and laminin; and cultured overnight at 37° C. under an atmosphere of 5% CO2. Thereafter, 50 μl of the culture supernatant was removed, and 50 μl of a test compound which was serially diluted with the assay medium to 2 times of the final concentration or DMSO (negative control) was added to each well. After the culturing for 96 hours, 50 μl of the culture supernatant was removed, and 50 μl of a 15% neutral buffered formalin liquid (manufactured by Wako Pure Chemical Industries, Ltd.) cooled to be 4° C. was added to each well and allowed to stand for 1 hour. Thereafter, by washing twice using PBS containing 0.3% Triton X-100 (manufactured by Nacalai Tesque) (hereinafter TBST), 50 μl of Hoechst 33342 (manufactured by Nacalai Tesque) adjusted to 3.3 μmol/L with 5% skim milk solution diluted with PBS containing 0.5% Triton X-100 was added to each well and the nucleus was stained overnight at 4° C. in the dark. After washing twice with 100 μl/well of TBST and then once with PBS and subsequently soaking in 100 μl/well of PBS, fluorescence intensity of the nucleus-stained cells was measured using a fluorometer FDSS 6000 (Hamamatsu Photonics K.K.). By regarding the measured value of well to which the cells were not inoculated as 0%, and the measured value of negative control as 100%, relative values in the test compound addition group were calculated.
(§1) After putting a 7-week-old Sprague Dawley Rat to sleep by ether anesthesia and subsequent decapitation, the skull was cut open from the parietal region to extract the brain. Under a microscope, tissues including circumventricular region were isolated from the extracted brain by using ophthalmic scissors and tweezers. The tissues including circumventricular region were cut into fragments of about 1 mm^3 using ophthalmic scissors and scalpels and then subjected to 30 minutes of digestion reaction at 37° C. in 5 mL of Hanks' buffer containing 2.5 U/mL of papain, 250 U/mL of DNase (all manufactured by Worthington, Freehold, N.J.) and 1 U/mL of a neutral protease (Dispase, manufactured by Boehringer-Mannheim Corp.) (HBSS buffer, manufactured by Invitrogen). The mixture of cells and tissues obtained by the reaction was washed three times with DMEM (manufactured by Invitrogen) containing 10% fetal bovine serum (manufactured by Hyclone) and then dissolved in the DMEM containing 10% fetal bovine serum, followed by removing the undigested materials using a nylon mesh of 10 μm.
(§2) The thus obtained cells crude extract was cultured overnight on a culture dish of 10 cm, in an incubator of 37° C. using DMEM/F12 medium (manufactured by Invitrogen) containing 10% fetal bovine serum. On the next day, the medium was replaced with DMEM/F12 containing 1% of N-2 additives (manufactured by Invitrogen) and 20 ng/mL of FGF 2 (manufactured by Pepro Tech) and the culturing was started. Once in 3 days, half of the medium was replaced with new DMEM/F12 containing 1% of N-2 additives and 20 ng/mL of FGF 2 and the culturing was continued.
When a small colony consisted of small cells was formed, it was treated with 1% trypsin for 30 seconds to 1 minute, and the cells detached were harvested. […]

[2] = tested on: Rat adult neural stem cell line ANSC-7 cells; test: Test Example 2: Proliferation promoting activity on neural stem cells (2), viable cell counting reagent SF absorbance; details: 96 hours culture, absorbance 490 nm, read-out: proliferation promoting activity (relative value, negative control = 100%); for activity at 1 µM: 1.0 μmol/L; for activity at 0.32 µM: 0.32 μmol/L
Protocol: (§3) Rat adult neural tem cell line ANSC-7 cells prepared by the method described in the following Reference Example 1 were suspended in the assay medium at a density of 1.7×10^5 cells/mL; inoculated in 0.1 mL portion in a 96 well plate (manufactured by Costar) of which surface was processed with polyornithine and laminin; and cultured overnight at 37° C. under an atmosphere of 5% CO2. Thereafter, 50 μl of the culture supernatant was removed, and 50 μl of a test compound which was serially diluted with the assay medium to 2 times of the final concentration or DMSO (negative control) was added to each well. After the culturing for 96 hours, 10 μl per well of a viable cell counting reagent SF (manufactured by Nacalai Tesque) was added to the culture. After culturing at 37° C. for 3 hours in a 5% CO2 incubator and subsequent stirring for 1 minute, absorbance at 490 nm (control wavelength 655 nm) was measured using a microplate spectrophotometer Emax (manufactured by Molecular Device). By regarding the measured value of well to which the cells were not inoculated as 0%, and the measured value of negative control as 100%, relative values in the test compound addition group were calculated.
as §1, §2
(§4) When a small colony consisted of small cells was formed, it was treated with 1% trypsin for 30 seconds to 1 minute, and the cells detached were harvested. The harvested cells were inoculated on a multiple well culture dish (manufactured by Fisher Scientific) which had been coated at room temperature overnight using 10 μg/mL of polyornithine (manufactured by Sigma) and at 37° C. overnight using 5 μg/mL of mouse EHS tumor-derived laminin (Becton Dickinson), and the culturing was continued.
(§5) By continuing the above-mentioned culturing, small cells having small protrusion and thickness were concentrated. The cells were used as adult neural stem cells in the above-mentioned tests (Test Examples 1 to 3).

[3] = tested on: Rat adult neural stem cell line ANSC-7 cells; test: Test Example 3: Proliferation promoting activity on neural stem cells (3), same manner as Test Example 2; details: 96 h; for activity at 0.001 µM: 1 nmol/L; for activity at 3.2 µM: 3.2 μmol/L; for activity at 0.01 µM: 10 nmol/L
Protocol: as §3
Each of the tests was carried out in the same manner as in Test Example 2.
as §1, §2, §4, §5

[4] = same manner as Test Example 2, read-out: proliferation promoting activity (relative value, negative control = 100%)

## C=C(CCC(C)C1CCC2C3=C(CCC21C)C1(C)CCC(O)CC1CC3=O)C(C)C (stereo not shown) [Compound F]
[1]
  activity at 1 µM: ≥ 140%
[2]
  activity at 1 µM: ≥ 130%

## C=C(CCC(=C)C1CC(O)C2C3=CCC4CC(O)CCC4(C)C3CCC12C)C(C)C (stereo not shown) [Compound D]
[1]
  activity at 1 µM: ≥ 140%
[2]
  activity at 1 µM: ≥ 130%

## C=C(CCC(C)C1CC=C2C3=C(CCC21C)C1(C)CCC(O)CC1C(=O)O3)C(C)C (stereo not shown) [Compound V]
[3]; [4]
  activity at 0.001 µM: ≥ 120%

## C=C(CCC1(C)OC2OC3CC1C21CCC2C(=CCC4CC(O)CCC42C)C31)C(C)C (stereo not shown) [Compound B]
[1]
  activity at 1 µM: ≥ 140%

## C=C(CCC(=C)C1CC(O)C2C3=CCC4CC(=O)CCC4(C)C3CCC12C)C(C)C (stereo not shown) [Compound K]
[2]
  activity at 1 µM: ≥ 130%

## C=C(CCC1(C)OC2OC3CC1C21CCC2C4(C)CCC(OC(C)=O)CC4CC4OC42C31)C(C)C (stereo not shown) [Compound A1]
[1]
  activity at 0.32 µM: ≥ 160%

## C=C(CCC(C)(O)C1CC(O)C2C3=CCC4CC(O)CCC4(C)C3CCC21C)C(C)C (stereo not shown) [Compound J]
[2]; 3.2 μmol/L
  activity at 3.2 µM: ≥ 125%

## C=C(CCC1(C)OC2OC3CC1C21CCC2C(=CC=C4CC(O)CCC42C)C31)C(C)C (stereo not shown) [Compound L]
[2]
  activity at 0.32 µM: ≥ 130%

## C=C(CCC(C)C1CCC2=C3OC(=O)C4CC(O)CCC4(C)C3CCC21C)C(C)C (stereo not shown) [Compound U]
[3]; [4]
  activity at 0.001 µM: ≥ 120%

## C=C(CCC1(C)OC2OC3CC1C21CCC2C4(C)CCC(O)CC4CCC2(O)C31)C(C)C (stereo not shown) [Compound A5]
[1]
  activity at 0.32 µM: ≥ 160%

## C=C(CCC(C)C1CCC2C3=C(CCC21C)C1(C)CCC(O)CC1C(=O)O3)C(C)C (stereo not shown) [Compound E]
[1]
  activity at 0.32 µM: ≥ 150%
[2]
  activity at 0.32 µM: ≥ 130%

## CC(C)C(C)/C=C/C(C)C1CCC2/C(=C/C(=O)OC3(C)CCC(O)CC3=O)C(=O)CCC21C (stereo not shown) [Compound AA]
[3]; [4]
  activity at 3.2 µM: 120%

## CC(C)=CC(=O)c1cccc2c3c([nH]c12)C(C)(C)C1CC24CCCN2CC1(C3)NC4=O (stereo not shown) [Compound N]
[3]; 1 μmol/L, same manner as Test Example 2, read-out: proliferation promoting activity (relative value, negative control = 100%)
  activity at 1 µM: 120%

## C=C(CCC1(C)OC(=O)C23CCC4C5(C)CCC(O)CC5CC5OC54C2C(O)CC13)C(C)C (stereo not shown) [Compound H]
[2]
  activity at 1 µM: ≥ 130%

## COC(C)(C)/C=C/c1cccc2c3c([nH]c12)C(C)(C)C1CC24CCCN2CC1(C3)NC4=O (stereo not shown) [Compound M]
[3]; read-out: proliferation promoting activity (relative value, negative control = 100%)
  activity at 0.32 µM: 120%

## CC(C)C(C)CCC1(C)OC2OC3CC1C21CCC2C4(C)CCC(O)CC4CC4OC42C31 (stereo not shown) [Compound A3]
[1]
  activity at 0.32 µM: ≥ 160%

## C=C(CCC(C)C1CCC2C3C(=O)CC4CC(O)CCC4(C)C3CCC12C)C(C)C (stereo not shown) [Compound W]
[3]; [4]
  activity at 0.01 µM: ≥ 120%

## C=C(CCC(C)(O)C1CCC2C3=CCC4CC(O)CCC4(C)C3CCC21C)C(C)C (stereo not shown) [Compound C]
[1]
  activity at 0.32 µM: ≥ 150%
[2]
  activity at 0.32 µM: ≥ 130%

## C=C(CCC1(C)OC2OC3CC1C21CCC2C4(C)CCC(O)CC4CC4OC42C31)C(C)C (stereo not shown) [Compound A]
[1]
  activity at 0.32 µM: ≥ 150%
[2]
  activity at 0.32 µM: ≥ 130%

## C=C(/C=C/C(C)C1CCC2C3C(=O)CC4CC(O)CCC4(C)C3CCC12C)C(C)C (stereo not shown) [Compound X]
[3]; [4]
  activity at 0.01 µM: ≥ 120%

## C=C(CCC1(C)OC2OC3CC1C21CCC2C4(C)CCC(=O)CC4CC4OC42C31)C(C)C (stereo not shown) [Compound A2]
[1]
  activity at 0.32 µM: ≥ 160%

## C=C(CCC(C)(O)C1CC(O)C2=C3C(O)CC4CC(O)CCC4(C)C3CCC21C)C(C)C (stereo not shown) [Compound Y]
[3]; [4]
  activity at 3.2 µM: 120%

## CC(C)C(C)/C=C/C(C)C1CCC2/C(=C/C(=O)OC3CCC(C)(O)C(=O)C3)C(=O)CCC21C (stereo not shown) [Compound BB]
[3]; [4]
  activity at 3.2 µM: 120%

Reference: patent US20110020931A1, “PROLIFERATION PROMOTING AGENT FOR NEURAL STEM CELLS” (KYOWA HAKKO KIRIN CO., LTD., priority 2008, published 2011)
